Measured values from paper PMC3378510 (Nature immunology, 2012).

How the values were obtained:
1E6 CD8^+ T cell clone = test: Peptide mutagenesis scan of 1E6 T cells, TNF secretion; type: cell-based, human; settings: compared with index peptide; peptide 1 μg/ml, 16 hr
[1] = system: 1E6 clone, in the context of HLA A*0201; settings: compared with preproinsulin-derived peptide ALWGPDPAAA; cited from earlier work

Substance	TNF response / activation, in words (1E6 CD8^+ T cell clone)	agonist potency, in words [1]
Q: L Position 2: ALWGPDPAAA with L2 mutated to Q (AQWGPDPAAA)	larger responses compared with the index peptide	–
R: A Position 1: ALWGPDPAAA with A1 mutated to R (RLWGPDPAAA)	larger responses compared with the index peptide	–
RQFGPDFPTI	–	most potent peptide identified
